In ChEMBL document CHEMBL1268866, “Factor Xa inhibitors: next-generation antithrombotic agents” (J Med Chem, 2010):
Blank lines part the entries; values can stand above or below the compound they belong to.

Tests used:
[1] = Oral bioavailability in rat; assay type: ADME, organism-based; settings: in vivo
[2] = in vivo; settings: dog, po
[3] = in vivo; settings: dog
[4] = in vivo; settings: dog; remark: listed apart in the source
[5] = in vivo; settings: dog; remark: listed apart in the source
[6] = Half life in rat; assay type: ADME, organism-based; settings: in vivo
[7] = species: Canis familiaris; experiment: Plasma concentration in dog; assay type: ADME, organism-based, Canis lupus familiaris; settings: in vivo
[8] = Clearance in monkey; assay type: ADME, organism-based, Macaca mulatta; settings: rhesus monkey, in vivo
[9] = Oral bioavailability in monkey; settings: in vivo
[10] = Volume of distribution at steady state in rat; assay type: ADME, organism-based; settings: in vivo, read-out: Vdss
[11] = (§1) Clearance in rat; assay type: ADME, organism-based; settings: in vivo
[12] = Volume of distribution at steady state in monkey; assay type: ADME, organism-based, Macaca mulatta; settings: rhesus monkey, in vivo; read-out: Vdss
[13] = Half life in monkey; assay type: ADME, organism-based, Macaca mulatta; settings: rhesus monkey, in vivo
[14] = species: Rattus norvegicus; experiment: as §1; assay type: ADME, organism-based; settings: in vivo
[15] = Half life in po dosed human; assay type: ADME, organism-based; settings: in vivo
[16] = Drug excretion in human urine; assay type: ADME, tissue-based; settings: read-out: Activity
[17] = Drug excretion in human feces; assay type: ADME, tissue-based; settings: faeces, read-out: Activity
[18] = Oral bioavailability in chimpanzee; assay type: ADME, organism-based, Pan troglodytes; settings: in vivo
[19] = Volume of distribution in chimpanzee; assay type: ADME, organism-based, Pan troglodytes; settings: in vivo
[20] = Half life in human; assay type: ADME, organism-based; settings: in vivo
[21] = Clearance in human; assay type: ADME, organism-based; settings: in vivo
[22] = Tmax in po dosed human; assay type: ADME, organism-based; settings: in vivo
[23] = Drug excretion in rat feces; assay type: ADME, tissue-based; settings: faeces, read-out: Activity
[24] = Drug excretion in rat urine; assay type: ADME; settings: read-out: Activity
[25] = Drug excretion in dog feces; assay type: ADME, tissue-based, Canis lupus familiaris; settings: faeces, read-out: Activity
[26] = Drug excretion in dog urine; assay type: ADME, Canis lupus familiaris; settings: read-out: Activity

- bioavailability [1]: 28%
SMILES: CO[C@@H]1C[C@H](C(=O)Nc2ccc(-c3ccccc3S(C)(=O)=O)cc2F)N(C(=O)Nc2ccc(Cl)cc2)C1

- bioavailability [1]: 17%
SMILES: CS(=O)(=O)c1ccccc1-c1ccc(NC(=O)[C@H]2C[C@@H](O)CN2C(=O)Nc2ccc(Cl)cc2)c(F)c1

- bioavailability [2]: 16%
- half-life [3]: 1.6 h
- clearance [4]: 41.7 mL/min/kg
- Vd [5]: 4.5 L/kg
SMILES: CN(C)Cc1nccn1-c1ccc(NC(=O)c2cc(C(F)(F)F)nn2-c2ccc3onc(N)c3c2)cc1

- bioavailability [1]: 100%
SMILES: CN(C)Cc1ccccc1-c1ccc(C(=O)Nc2ccc(Cl)cc2C(=O)Nc2ccc(Cl)cn2)cc1

- bioavailability [1]: 27%
SMILES: CS(=O)(=O)c1cc(F)ccc1N1CCN(C(=O)[C@H](NC(=O)c2ccc3ccnc(N)c3c2)c2ccccc2)CC1

- bioavailability [2]: 100%
SMILES: NCc1ccccc1-n1nc(C(F)(F)F)cc1C(=O)Nc1ccc(-c2ccccc2S(N)(=O)=O)cc1F

- bioavailability [1]: 35%
- half-life [6]: 7.2 h
SMILES: Cc1cc(C(=O)Nc2ccc(-n3ccnc3CN(C)C)cc2F)n(-c2ccc3cc(Cl)ccc3c2)n1

- bioavailability [1]: 47%
SMILES: CN(C)C(=N)c1ccc(NC(=O)c2cc(C(F)(F)F)nn2-c2cc3ccccc3cc2F)c(F)c1

- bioavailability [2]: 46%
- half-life [3]: 0.6 h
SMILES: O=C1CN(S(=O)(=O)c2cc3ccc(Cl)cc3s2)CCN1Cc1cc2c[nH]ccc-2n1

- bioavailability [2]: 97%
- half-life [3]: 0.867 h
SMILES: O=C1CN(S(=O)(=O)/C=C/c2ccc(Cl)s2)CCN1Cc1cc2c[nH]ccc-2n1

- half-life [3]: 12.6 h
SMILES: O=C(Nc1ccc(-n2ccccc2=O)cn1)[C@H]1C[C@](O)(c2ccc(F)cc2F)CN1C(=O)Nc1ccc(Cl)cc1

- bioavailability [9]: 46%
SMILES: Cc1ncc2n1C(=O)N(C1CCN(C(=O)CCS(=O)(=O)c3ccc4cc(Cl)ccc4c3)CC1)C2

- clearance [8]: 11.8 mL/min/kg
- Vd [12]: 0.579 L/kg
- bioavailability [9]: 52.5%
SMILES: O=C([C@H](O)CS(=O)(=O)c1ccc2cc(Cl)ccc2c1)N1CCC(N2CCCNC2=O)CC1 [LETAXABAN]

- Vd [10]: 0.3 L/kg
- bioavailability [1]: 57%
- half-life [6]: 1.2 h
- Tmax [22]: 1.3 h
- dose excreted [23]: 67%
- dose excreted [24]: 25%
- dose excreted [25]: 43%
- dose excreted [26]: 52%
- bioavailability [2]: 60%
- half-life [3]: 0.9 h
- clearance [4]: 5 mL/min/kg
- Vd [5]: 0.4 L/kg
SMILES: O=C(NC[C@H]1CN(c2ccc(N3CCOCC3=O)cc2)C(=O)O1)c1ccc(Cl)s1 [RIVAROXABAN]

- bioavailability [9]: 20%
SMILES: CC(=N)N1CCC(Oc2ccc(N(Cc3ccc4ccc(C(=N)N)cc4c3)S(=O)(=O)CC(=O)O)cc2)CC1 [YM-60828]

The remaining lines, values behind:

SMILES: CCCCOC(=O)COc1cc(-c2ccccc2S(C)(=O)=O)ccc1CCNS(=O)(=O)c1cc(C(=N)NO)ccc1O
- bioavailability [1]: 15%

SMILES: Nc1nccc2ccc(CN3CC[C@H](NS(=O)(=O)c4cc5ncccc5s4)C3=O)cc12
- concentration [7]: 2700 nM
- bioavailability [2]: 33%

SMILES: COC[C@@H](NC(=O)c1ccc(Cl)s1)C(=O)Nc1ccc(N2CCOCC2=O)c(C)c1
- bioavailability [1]: 60%
- clearance [8]: 4.17 mL/min/kg
- bioavailability [2]: 60%
- bioavailability [9]: 80%

SMILES: CN(C)Cc1ccc(C(=O)Nc2ccc(Cl)cc2C(=O)Nc2ccc(Cl)cn2)cc1
- Vd [10]: 33 L/kg
- bioavailability [1]: 100%

SMILES: CN(C)Cc1nccn1-c1ccc(N2CC[C@H](NS(=O)(=O)/C=C/c3ccc(Cl)s3)C2=O)c(F)c1
- Vd [10]: 0.6 L/kg
- clearance [11]: 13 mL/min/kg
- bioavailability [1]: 52%
- half-life [6]: 1 h

SMILES: CN1CCc2nc(C(=O)N[C@@H]3C[C@@H](C(=O)N(C)C)CC[C@@H]3NC(=O)c3cc4cc(Cl)ccc4[nH]3)sc2C1
- clearance [8]: 12.4 mL/min/kg
- Vd [12]: 1.49 L/kg
- half-life [13]: 1.5 h

SMILES: Cc1cc2cc(N=C(NC#N)N[C@H]3CCCCN(CC(=O)N4CCCC4)C3=O)ccc2o1
- bioavailability [1]: 50%

SMILES: COc1ccc(-n2nc(C(N)=O)c3c2C(=O)N(c2ccc(N4CCCCC4=O)cc2)CC3)cc1 [APIXABAN]
- Vd [10]: 0.31 L/kg
- clearance [14]: 4.33 mL/min/kg
- half-life [15]: 8 h
- dose excreted [16]: 25%
- dose excreted [17]: 47%
- bioavailability [18]: 51%
- Vd [19]: 0.17 L/kg
- bioavailability [2]: > 50%
- clearance [4]: 0.333 mL/min/kg
- Vd [5]: 0.2 L/kg

SMILES: CC(=N)N1CC[C@H](Oc2ccc([C@H](Cc3ccc4ccc(C(=N)N)cc4c3)C(=O)O)cc2)C1 [DX-9065A]
- half-life [20]: > 20 h
- clearance [21]: 120 mL/min

SMILES: CN1CCc2nc(C(=O)N[C@@H]3C[C@@H](C(=O)N(C)C)CC[C@@H]3NC(=O)C(=O)Nc3ccc(Cl)cn3)sc2C1 [EDOXABAN]
- bioavailability [9]: 50%

SMILES: CO[C@@H]1C[C@H](C(=O)Nc2ccc(-n3ccccc3=O)cc2F)N(C(=O)Nc2ccc(Cl)cc2)C1 [ERIBAXABAN]
- bioavailability [1]: 82%
- bioavailability [2]: 41%
- clearance [4]: 2.5 mL/min/kg
- Vd [5]: 0.87 L/kg

SMILES: CN1CCC(N2CCN(C(=O)[C@H](NC(=O)c3ccc4cc[nH]c4c3)c3ccccc3)CC2)CC1 [LY-517717]
- bioavailability [1]: 25%
- half-life [6]: 7 h
- bioavailability [2]: 25%
- half-life [3]: 7 h
